Measurements: US7973053B2, “Nerve cell death inhibitor” (priority 2007, dated 2011)
Structures can show the parent of a compound that is named as a salt.

Tests used:
[1] = system: nerve cells in the hippocampus CA1 region; test: rat model for revascularization of vertebral-carotid artery occlusion (4-point ischemia), nerve cell death in hippocampus CA1; type: in vivo; conditions: oral once a day for 6 days
Protocol: Seven-week old Crlj:WI male rats (Charles River Laboratories Japan Inc.) were obtained, and they were provided to the experiment after being subjected to quarantine (for 5 days) and acclimatization (for 7 days or more). Throughout the experimentation period, the rats were bred in a breeding chamber maintained under a light-dark cycle (light period under room light: 6:00 AM to 6:00 PM), at a temperature of 23±3° C. and a humidity of 55±15%, and were allowed to freely take in solid feedstuff (CRF-1; Oriental Yeast Co., Ltd.) and drinking water (tap water).
Pitavastatin and ARICEPT were each suspended in a 0.5% (w/v) aqueous solution of carboxymethylcellulose sodium (hereinafter, CMC-Na, SIGMA), and prepared just before use such that the amount of administration would be 5 mL/kg.
The day of grouping was counted as the first day of administration, and the test drug was orally administered once a day for 6 days, thus 6 times in total. The normal group and the solvent control group were administered with a 0.5% (w/v) aqueous solution of CMC-Na.
On the fifth day of administration, 35 mg/kg of pentobarbital sodium (Nembutal (registered trademark) injectable solution, Dainippon Pharmaceutical Co., Ltd.) was intraperitoneally administered to the rats excluding those in the normal group. The right and left alar foramens were exposed from the first cervical spine part under anesthesia, and the vertebral arteries were thermally solidified using a soldering iron, so as to permanently occlude the vertebral arteries on both sides. […]
The fixated brains were dehydrated, infiltrated and embedded in paraffin, and a section having a thickness 10 μm was produced from the vicinity of Bregma −3.3 mm. […] The number of nerve cells was counted using an image analyzer (Win ROOF V5.6, Mitani Corporation), and the length of CA1 was measured.
According to the following formula, the number of nerve cells per unit length was determined, and the average value and standard deviation were calculated for each group. […]

[2] = system: nerve cells; conditions: pitavastatin 3 mg/kg single administration; Non-Patent Document 9; cited from earlier work

In the case of `O=C([O-])C[C@H](O)C[C@H](O)/C=C/c1c(C2CC2)nc2ccccc2c1-c1ccc(F)cc1.O=C([O-])C[C@H](O)C[C@H](O)/C=C/c1c(C2CC2)nc2ccccc2c1-c1ccc(F)cc1.[Ca+2]` [pitavastatin, pitavastatin calcium], the “number of nerve cells in the hippocampus CA1 region (cells/mm) vs solvent control group” value (from here on “number of nerve cells … vs solvent control group”) ([1]; Example 1, pitavastatin 3 mg/kg single administration, FIG. 1) is listed as “not significant” and the “increase in the number of nerve cells, as reported in the literature” value [2] is listed as “presence of significant difference”.

In the case of `COc1cc2c(cc1OC)C(=O)C(CC1CCN(Cc3ccccc3)CC1)C2` (stereo not shown) [ARICEPT, donepezil hydrochloride], the “number of nerve cells … vs solvent control group” value ([1]; Comparative Example 1, ARICEPT 0.5 mg/kg single administration, FIG. 2) is reported as “not significant” and the “number of nerve cells … vs solvent control group” value ([1]; Example 1, ARICEPT 0.5 mg/kg single administration, FIG. 1) is reported as “not significant”.
